Source: BigSolDB 2.1

N#CNC(=N)N
solubility (mole fraction)
Details | 278.15 K | 283.15 K | 288.15 K | 293.15 K | 298.15 K | 303.15 K | 308.15 K | 313.15 K | 318.15 K | 323.15 K
in DMF | 0.183 | 0.19 | 0.205 | 0.215 | 0.225 | 0.243 | 0.248 | 0.256 | 0.268 | 0.275
in acetone | 0.00744 | 0.0084 | 0.00923 | 0.0101 | 0.011 | 0.0118 | 0.0127 | 0.0136 | 0.0144 | 0.015
in ethanol | 0.00374 | 0.00403 | 0.00449 | 0.00493 | 0.00591 | 0.00654 | 0.00738 | 0.00805 | 0.00883 | 0.0097
in ethylene glycol | 0.0187 | 0.0245 | 0.0289 | 0.0377 | 0.048 | 0.0587 | 0.0655 | 0.0805 | 0.0995 | 0.12
in methanol | 0.0141 | 0.0162 | 0.0193 | 0.021 | 0.0231 | 0.0264 | 0.028 | 0.0297 | 0.032 | 0.0347
in water | 0.00303 | 0.00387 | 0.00526 | 0.00707 | 0.00891 | 0.0114 | 0.0141 | 0.0172 | 0.021 | 0.0265
